Data from patent US9868724B2, “Compounds” (GLAXOSMITHKLINE INTELLECTUAL PROPERTY DEVELOPMENT LIMITED, priority 2014, dated 2018).

Experiments:
RORγ-LBD = target: T1, RORγ-LBD (Homo sapiens, UniProt P51449); test: Fluorescence Energy Transfer (FRET) Assay; format: biochemical; details: mean pIC50 of multiple test results if tested more than once; SRC1/RORγ-LBD with 0.2 μM surrogate agonist
T1 construct: adding an appropriate amount of biotinylated RORγ-LBD and APC-labeled streptavidin
T1 sequence (P51449 269-508 limits assumed): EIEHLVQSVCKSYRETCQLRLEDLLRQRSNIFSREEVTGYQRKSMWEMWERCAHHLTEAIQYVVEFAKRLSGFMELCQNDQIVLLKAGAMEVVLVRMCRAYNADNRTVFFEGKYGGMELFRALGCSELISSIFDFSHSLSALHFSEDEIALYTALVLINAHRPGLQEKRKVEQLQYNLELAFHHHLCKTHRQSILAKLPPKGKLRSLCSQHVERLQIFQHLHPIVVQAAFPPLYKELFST
Procedure: The assays were performed in an assay buffer consisting of 50 mM NaF, 50 mM 3-(N-morpholino)propanesulfonic acid, pH 7.5, 50 μM 3-[(3-cholamidopropyl)dimethylammonio]-propanesulfonate, 0.1 mg/mL bovine serum albumin, and 10 mM dithiothreitol in 384-well plates (Greiner 784076, Longwood, Fla.). The total volume was 10 μL/well. The europium-labeled SRC1 solution was prepared by adding an appropriate amount of biotinylated SRC and europium labeled streptavidin (PerkinElmer Life and Analytical Sciences, Waltham, Mass.) into assay buffer, with final concentrations of 27 and 3.3 nM, respectively. The allophycocyanin (APC)-labeled-LBD solution was prepared by adding an appropriate amount of biotinylated RORγ-LBD and APC-labeled streptavidin (CR130-100; PerkinElmer Life and Analytical Sciences) at a final concentration of 33 nM each. After 15 min of incubation at room temperature, a 20-fold excess of biotin was added to block the remaining free streptavidin. […] The plates were incubated for 1 h at room temperature and then read on ViewLux (PerkinElmer Life and Analytical Sciences) in LANCE mode configured for europeum-APC labels. Data were collected and analyzed by Activitybase.

[1] = target: T2, RORγ ligand binding domain (RORγ-LBD) (Homo sapiens, UniProt P51449); test: Dual Fluorescence Energy Transfer (FRET) Assay; format: biochemical; details: mean pIC50 of multiple test results if tested more than once; RORγ-LBD/SRC1(2) peptide interaction
T2 construct: modified polyhistidine tag MKKHHHHHHLVPRGS (N); made in house; host or cells: E. coli BL21(DE3)
T2 sequence (P51449 263-518): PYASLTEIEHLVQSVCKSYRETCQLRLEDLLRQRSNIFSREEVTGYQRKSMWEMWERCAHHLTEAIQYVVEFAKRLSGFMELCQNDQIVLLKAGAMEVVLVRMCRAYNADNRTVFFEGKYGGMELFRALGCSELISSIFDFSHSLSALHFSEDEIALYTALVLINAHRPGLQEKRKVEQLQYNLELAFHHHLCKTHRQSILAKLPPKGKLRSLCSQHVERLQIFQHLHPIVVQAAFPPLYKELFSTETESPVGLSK
Source text: This assay is based on the knowledge that nuclear receptors interact with cofactors (transcription factors) in a ligand dependent manner. RORγ is a typical nuclear receptor in that it has an AF2 domain in the ligand binding domain (LBD) which interacts with co-activators. The sites of interaction have been mapped to the LXXLL motifs in the co-activator SRC1(2) sequences. Short peptide sequences containing the LXXLL motif mimic the behavior of full-length co-activator.
The assay measures ligand-mediated interaction of the co-activator peptide with the purified bacterial-expressed RORγ ligand binding domain (RORγ-LBD) to indirectly assess ligand binding. RORγ has a basal level of interaction with the co-activator SRC1(2) in the absence of ligand, thus it is possible to find ligands that inhibit or enhance the RORγ/SRC1(2) interaction.
Human RORγ Ligand Binding Domain (RORγ-LBD) was expressed in E. coli strain BL21(DE3) as an amino-terminal polyhistidine tagged fusion protein. DNA encoding this recombinant protein was sub-cloned into a modified pET21a expression vector (Novagen). […]
Approximately 50 g E. coli cell pellet was resuspended in 300 mL of lysis buffer (30 mM imidazole pH 7.0 and 150 mM NaCl). […] After washing to baseline absorbance with the equilibration buffer, the column was developed with a gradient from 30 to 500 mM imidazole pH 7.0. […]

RORγ = target: T3, RORγ (Homo sapiens, UniProt P51449); test: Jurkat Cell Luciferase Assay; format: cell-based; details: mean pIC50 of multiple test results if tested more than once; Jurkat cells, human IL17 promoter luciferase reporter, RORγt overexpression
T3 construct: expressed in transfected cells
T3 sequence (P51449 1-497 isoform P51449-2): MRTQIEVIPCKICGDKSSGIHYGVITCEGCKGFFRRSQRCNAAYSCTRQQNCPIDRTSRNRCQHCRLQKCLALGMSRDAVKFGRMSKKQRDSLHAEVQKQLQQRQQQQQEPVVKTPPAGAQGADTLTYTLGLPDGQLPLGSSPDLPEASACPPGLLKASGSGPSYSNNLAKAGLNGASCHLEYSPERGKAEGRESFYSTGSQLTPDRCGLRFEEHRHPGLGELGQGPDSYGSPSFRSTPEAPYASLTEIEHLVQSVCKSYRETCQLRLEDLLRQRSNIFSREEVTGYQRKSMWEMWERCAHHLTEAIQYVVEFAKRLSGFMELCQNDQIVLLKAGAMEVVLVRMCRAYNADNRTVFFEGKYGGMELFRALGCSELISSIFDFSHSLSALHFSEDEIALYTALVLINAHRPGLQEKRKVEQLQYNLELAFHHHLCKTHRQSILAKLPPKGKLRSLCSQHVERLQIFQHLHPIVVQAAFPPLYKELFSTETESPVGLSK
Source text: RORγ is known to bind to a CNS (conserved non-coding sequences) enhancer element in the IL17 promoter. In this assay, RORγ activity is indirectly assessed using a luciferase reporter construct which contains the human IL17 promoter having the RORγ-specific CNS enhancer element. Inhibition of RORγ activity by a compound will result in a decrease in luciferase activity of Jurkat cells transfected with the reporter construct.
For the luciferase reporter plasmid, the 3 Kb human IL17 promoter containing the RORγ-specific CNS enhancer element was PCR amplified from human genomic DNA and cloned into a pGL4-Luc2/hygro reporter plasmid sequentially as XhoI-HindIII (1.1 Kb) and KpnI-XhoI (1.9 Kb) fragments. For the 1.1 Kb fragment, PCR was used to amplify human IL17 proximal promoter region from genomic DNA of 293T cells using primers as follows: forward primer, 5′-[…]-3′ (XhoI site is underlined) and reverse primer, 5′-[…]-3′ (HindIII site is underlined). The 1.1 kb DNA bands were excised, purified, and inserted into pMD19-T Simple Vector (Takara). […]
Compounds were dissolved in DMSO at three concentrations, 10 mM, 400 uM and 16 uM, and were dispensed into 384-wells assay plate at 40 nl, 12.5 nl, 5 nl respectively. The volume was adjusted with pure DMSO to a give a final uniform volume of 40 nl Jurkat cells described above were counted and centrifuged. […]

Mouse CD4+ cells = test: Th17 Cell Differentiation Assay; format: cell-based; details: mean pIC50 of multiple test results if tested more than once, IL-17 ELISA
Procedure: Mouse CD4+ cells were purified using the CD4+ T Cell Isolation II Kit according to manufacturer's instructions (Miltenyi Biotec). 96 well plates were pre-coated with anti-mCD3 antibody. Un-coated wells were used as controls. CD4+ Cells were resuspended in RPMI 1640 complete medium and were added to the 96-well plates. Cytokine cocktail and the compound were then added to the wells. Antibodies and cytokines (all from R&D Systems) used in the assay were selected from the following: anti-mCD3; anti-mCD28; anti-mIFNγ; anti-mIL4; mIL-6; mIL-23; mIL-1β; hTGF-β1. The culture was incubated at 37° C. for 3 days and supernatants were collected for ELISA. The IL-17 ELISAs were performed according to manufacturer's instructions (R&D Systems). The results were analyzed using Prism software with non-linear regression to determine pIC50.
The Th17 differentiation culture described above was maintained for 5 days and cells were analyzed by IL-17 and IFN-γ intracellular staining according to manufacturer's instructions (BD Biosciences).

| IC50 (RORγ-LBD) [nM] | IC50 [1] [nM] | IC50 (RORγ) [nM] | IC50 (Mouse CD4+ cells) [nM] | Compound |
| --- | --- | --- | --- | --- |
| ~251 | ~794 | ~12.6 | ~17.4 | Cc1ncc(C(=O)Nc2cc(Cl)cc(CN3CCN(C(=O)[C@@H]4CCOC4)[C@@H](C)C3)c2C)cc1C#N (single isomer, unassigned) [Example 91] |
| ~126 | ~200 | ~25.1 | ~81.3 | Cc1ncc(C(=O)Nc2cc(Cl)cc(CN3CCN(C(=O)[C@H]4CCOC4)[C@@H](C)C3)c2C)cc1F [Example 57, N-(5-chloro-2-methyl-3-(((S)-3-methyl-4-((S)-tetrahydrofuran-3-carbonyl)piperazin-1-yl)methyl)phenyl)-5-fluoro-6-methylnicotinamide] |
